Measurements as given in patent US10292991B2, “Small molecule therapeutic compounds that reduce the incidence of intracerebral hemorrhage and brain microhemorrhages” (St. Michaels Hospital, priority 2016, dated 2019).
Counter-ions that a name gives are not always drawn. Like-named read-outs stand apart in the source and are kept apart here.

Tests used:
[1] = tested on: bbh mutant zebrafish (mutation in βPix), spontaneous ICH; assay: bbh (bubblehead) mutant genetic model of brain hemorrhage; format: in vivo, zebrafish (Danio rerio); conditions: for EC50: read-out: EC50 to rescue brain hemorrhage, bbh Mutant Model
Text: A specific zebrafish line with a gene mutation called bubblehead (bbh) was used. This line has spontaneous ICH. Bubblehead phenotype is caused by a mutation in βPix. Adult homozygous zebrafish were viable and fertile. […] More than 85% of zebrafish larvae display an ICH phenotype.

[2] = tested on: β-Pix MO-induced hemorrhage in zebrafish; assay: βPix morpholino-induced hemorrhage in zebrafish, rescue by drugs; format: in vivo, zebrafish (Danio rerio); conditions: for Efficacy on β-Pix MO Hemorrhage: inhibition of β-Pix MO-induced hemorrhage
Method: (§1) Morpholino oligonucleotides (MOs) were custom-synthesized by Gene Tools (Carvalis, Oreg.); their sequences are shown in Table 1.
(§2) Danieau buffer (58 mM NaCl, 0.7 mM KCl, 0.4 mM MgSO4, 0.6 mM Ca(NO3)2, 5.0 mM HEPES, pH 7.6) was used to dilute the MO solutions to 0.2 mM final concentration. Individual wells were placed on a 1.0% agarose plate, in which the embryos were positioned. Afterwards, the MO solution was injected through the cell yolk into embryos of 1 to 4 cell-stage. The injected quantities varied from 0.5 to 15 ng.
(§3) bbhm292 zebrafish mutant has a hypomorphic mutation in βPix, resulting in ICH/BMH and hydrocephalus. The MO is βPixexon6-MO which blocks splicing of exon 6 and results in premature protein termination. […] Higher doses of βPixexon6-MO (up to 8 ng) result in a lack of blood circulation, and therefore no ICH/BMH was detected. Injection of 8 ng results in complete missplicing of βPix and therefore a null phenotype, whereas lower doses retain some normally spliced βPix. The βPixexon6-MO sequence is 5′-[…]-3′ [SEQ ID NO: 1]. 3Pixexon6-MO was injected into the embryos at the 1-2 cell stage, and compounds were added 12 hpf.
(§4) The first three morpholino pairs were good for the efficacy study. Efficacy assays were performed using Artemether (ARM, Sigma) and artemesunate (ART, GMP). […] Treating these morphants with the drugs rescued the ICH phenotype.

zebrafish larvae [3] = assay: Toxicity assay in zebrafish larvae (heart beat, blood flow, cardiac edema); format: in vivo, zebrafish (Danio rerio)
Method: The embryos were collected and distributed into a 96-well plate in 0.5% DMSO, similar to efficacy assays. […] Heart beat and blood flow were ranked from 3 (normal heart beat or blood flow) to 0 (no heart beat or blood flow). Cardiac edema was ranked from 0 (normal heart without edema) to −3 (severe cardiac edema). […] The ratio of TC50/EC50 was calculated in each case.
Heart beat and blood flow were ranked from 3 (normal heart beat or blood flow) to 0 (no heart beat or blood flow). Cardiac edema was ranked from 0 (normal heart without edema) to −3 (severe cardiac edema). […] Data is expressed as mean±SEM from 3 experiments.

[4] = tested on: brain hemorrhage induced by 1 μM atorvastatin in zebrafish; assay: Atorvastatin-induced brain hemorrhage (ICH) model in zebrafish, rescue by drugs; conditions: for Efficacy on atorvastatin Hemorrhage: ATV model induced by 1 μmol/L atorvastatin, inhibition of hemorrhage; for Result in the ATV zebrafish model: derivatives acquired from Sequoia Research Products
Method: Zebrafish were set up the night before the experiment day. In the morning of the experimental day, we put breeders together for mating and fertilization. 6 hours post-fertilization (hpf), statins was added into a 96-well plate holding 100 μl water with 7 to 8 fish eggs in each well, which was optimized through a serial pilot experiments. Statins were dissolved in DMSO and diluted with 0.5% of DMSO water into a working solution. 100 μl water containing 0.5% of DMSO was the medium for all wells in the final assessment.
For screening NIH compound libraries, 5 μM of each of the drugs from the library was added at 24 hpf into wells containing fish eggs treated with 1 μM ATV since 6 hpf. Hemorrhage positive control wells were treated with ATV but not treated with any drugs. Negative controls were not treated with any chemicals (fish with 0.5% of DMSO water). Geranylgeranyl pyrophosphate (GGPP, 4 mg/L) was used as positive rescue control.
Brain hemorrhage was assessed 72 hpf (66 hours after addition of statins) using stereomicroscopy by two observers. Percentage of brain hemorrhage was used as final readout. Compounds showing more than 70% of rescue of the brain hemorrhages in the initial test were re-tested to generate a final list of hits from the library.
All subsequent EC50 assays of positive compounds were performed with protocols established and optimized during the screening.

[5] = tested on: Cdh5 - exon2 morpholino-induced hemorrhage in zebrafish; assay: Cdh5 (VE-cadherin) morpholino-induced hemorrhage in zebrafish, rescue by drugs; format: in vivo, zebrafish (Danio rerio); conditions: result in words, no EC50
Method: as §2
Panels A & B: Stable EC junctions are maintained by a Cdc42-dependent and VE-cadherin-mediated cell-cell adhesion. VE cadherins are found on the surfaces of EC cell-cell junctions. VE-cadherins are associated with β- and α-catenins at their cytoplasmic domains, which connect them to the actin-based cytoskeleton (blue circles). Cdc42 belongs to the Rho-family of small guanosine triphosphatases (GTPases), which are the main regulators of VE-cadherin-based cell-cell adhesion. The functions of hmgcrb, βPix, and pak2a in regulating junctional stability in zebrafish are shown. HNGCR mediated GGPP biosynthesis regulates Cdc42 prenylation. βPix is a GEF that increases CDC42 affinity for GTP. Pak2 is an effector of Cdc42, which regulates actin filament organization.
Suppression of VE-cadherin induces hemorrhage.

[6] = tested on: Hmgcrb - splice morpholino-induced hemorrhage in zebrafish; assay: Hmgcrb morpholino-induced hemorrhage in zebrafish, rescue by drugs; format: in vivo, zebrafish (Danio rerio)
Method: as §2, §4

mice treated with LPS = assay: Atorvastatin plus LPS in mice: mortality and large hemorrhages; format: in vivo; conditions: for mortality: n=5
Text: While the present invention has been described with reference to the specific embodiments thereof it should be understood by those skilled in the art that various changes may be made and equivalents may be substituted without departing from the true spirit and scope of the invention. In addition, many modifications may be made to adopt a particular situation, material, composition of matter, process, process step or steps, to the objective spirit and scope of the present invention. All such modifications are intended to be within the scope of the claims appended hereto.

CCM3 (Ccm3) mRNA = assay: qRT-PCR of CCM3 mRNA in atorvastatin-treated zebrafish larvae; format: in vivo, zebrafish (Danio rerio); conditions: 1 μmol/L atorvastatin alone
Method: qRT-PCR was used to assess relative expression of selected genes (an average of two biological trial and three technical replicates and each trial is a pool of 60 larvae/treatment), using β-actin as the housekeeping gene control. 3 dpf, Tg(Flk:GFP; Gata:dsRed) zebrafish larvae were used for RNA extraction and cDNA synthesis. Atorvastatin and drug treatment were performed as previously mentioned in drug screening. Total RNA was extracted from these larvae (a pool of 50-60 larvae/treatment) using the RNeasy extraction kit (Qiagen, Mississauga, ON, CAN) and treated with DNase. The concentration of total RNA was determined spectrophotometrically at 260/280 nm using a NanoDrop™ spectrophotometer. First-strand cDNA was synthesized from 1 μg of total RNA using random hexamer primers.
In each case, forward primer is shown on the top and reverse primer on the bottom.
PCR was carried out in a 20 μl total volume and included 1×PCR buffer, 1.25 mM MgCl2, 0.25 mM dNTP, 1 U Taq polymerase, 0.5 μmol/L forward, and reverse primers and 1 μl cDNA.

[7] = tested on: Pak2a - exon8 morpholino-induced hemorrhage in zebrafish; assay: Pak2a morpholino-induced hemorrhage in zebrafish, rescue by drugs; format: in vivo, zebrafish (Danio rerio); conditions: result in words
Method: as §2
Another MO was designed to block the splice-donor sites after exon 8 in pak2a. Pak2a is the gene mutated in the rhdmi149 zebrafish mutant that develops ICH/BMH.
Efficacy assays were performed using Artemether (ARM, Sigma) and artemesunate (ART, GMP).

zebrafish larvae [8] = assay: Morpholino injection to induce hemorrhage in zebrafish larvae; format: in vivo; conditions: for Hemorrhage: at optimum injected amount, 3 dpf larvae, n = 150-250 per condition
Method: as §1, §2, §3
Another MO was designed to block the splice-donor sites after exon 8 in pak2a. Pak2a is the gene mutated in the rhdmi149 zebrafish mutant that develops ICH/BMH. The pak2a-MO sequence is 5′-[…]-3′ (SEQ ID NO: 2). Eight pg of pak2a-MO was injected per embryo, resulting in […] of embryos with ICH/BMH with low mortality (FIGS. 12 and 14).
Next, optimum amount of each morpholino was determined. The goal was to induce an acceptable percentage of hemorrhage (ideally between 40-80%), without having toxicity from morpholino injection.

[9] = drug from Sequoia Research (UK)
[10] = drug from Sigma, 3 dpf larvae, drug added 24 hpf
[11] = Danio rerio, read-out: EC50 (in nmol/L) on atorfvastatin model (μmol/L)
[12] = Danio rerio, read-out: EC50 to rescue brain hemorrhage, Statin Model
[13] = n = 15-20 larvae per condition, 1-3 times per compound

C[C@@H]1CC[C@H]2[C@@H](C)C(=O)O[C@@H]3O[C@]4(C)CC[C@@H]1[C@]32OO4 [Artemisinin]
EC50 ([1]; Danio rerio): 177 nM
Efficacy on β-Pix MO Hemorrhage [2]: +++++ (One + sign represents 20% inhibition on 1 μmol/L ATV or β-Pix MO-induced hemorrhage.)
TC50 (Blood flow) (zebrafish larvae [3]; [9]): 5340 nM
TC50 (Edema) (zebrafish larvae [3]; [9]): 6347 nM
TC50/EC50 ratio (Blood flow) (zebrafish larvae [3]; [9]): (20.4)
TC50/EC50 ratio (Edema) (zebrafish larvae [3]; [9]): 24.2)
TC50/EC50 ratio (Heart beat) (zebrafish larvae [3]; [9]): 4.6e+007)
TC50/EC50 ratio (Blood flow) (zebrafish larvae [3]; drug from Sigma): (13)
TC50/EC50 ratio (Edema) (zebrafish larvae [3]; drug from Sigma): (419)
TC50/EC50 ratio (Heart beat) (zebrafish larvae [3]; drug from Sigma): (104.5)
TC50 (Blood flow) (zebrafish larvae [3]; [10]): 1058 nM
TC50 (Edema) (zebrafish larvae [3]; [10]): 34134 nM
TC50 (Heart beat) (zebrafish larvae [3]; [10]): 8501 nM
Efficacy on atorvastatin Hemorrhage [4]: +++++ (One + sign represents 20% inhibition on 1 μmol/L ATV or β-Pix MO-induced hemorrhage.)
EC50 [4, 11]: 95 nmol/L
EC50 [4, 12]: 81.3 nmol/L
Result in the ATV zebrafish model [4]: tested positive

C[C@H]1[C@H](OC(=O)CCC(=O)O)O[C@@H]2O[C@@]3(C)CC[C@H]4[C@H](C)CC[C@@H]1[C@@]24OO3 [Artesunate]
EC50 [1, 13]: 127 nM
EC50 ([2]; Table 6, read-out: EC50 to rescue hemorrhage induced by βPix - exon6 morpholino): 95.6 ± 27.9 nM
Rescue of hemorrhage induced by Cdh5 - exon2 morpholino [5]: Rescue effect
EC50 ([6]; Table 6): 167 ± 9.3 nM
TC50 (Blood flow) (zebrafish larvae [3]; GMP-Artesunate): 794.4 nM
TC50 (Edema) (zebrafish larvae [3]; GMP-Artesunate): 3196 nM
TC50 (Heart beat) (zebrafish larvae [3]; GMP-Artesunate): 2525 nM
TC50 (Blood flow) (zebrafish larvae [3]; [9]): 1036 nM
TC50 (Edema) (zebrafish larvae [3]; [9]): 937.8 nM
TC50 (Heart beat) (zebrafish larvae [3]; [9]): 9539 nM
TC50 (Blood flow) (zebrafish larvae [3]; [10]): 741.5 nM
TC50 (Edema) (zebrafish larvae [3]; [10]): 5367 nM
TC50 (Heart beat) (zebrafish larvae [3]; [10]): 8884 nM
EC50 ([4]; read-out: EC50 to rescue brain hemorrhage, Statin Model, Table 4, n = 15-20 larvae per condition, three times per compound): 182 nmol/L

CC(C)c1c(C(=O)Nc2ccccc2)c(-c2ccccc2)c(-c2ccc(F)cc2)n1CC[C@@H](O)C[C@@H](O)CC(=O)O [Atorvastatin, atorvastatin calcium salt]
mortality (mice treated with LPS; atorvastatin 50 mg/kg in addition to LPS 5 mg/kg, 24 hours after treatments): 100%
Number of large hemorrhages caused by LPS (mice treated with LPS; mouse, in vivo): significantly increased
mortality (mice treated with LPS; statin alone, 24 hours): did not cause any mortality
CCM3 transcription level (qRT-PCR) after inducing hemorrhage (CCM3 (Ccm3) mRNA): decrease

C[C@H]1[C@@H](O)O[C@@H]2O[C@]3(C)CC[C@H]4[C@H](C)CC[C@@H]1[C@@]24OO3 [Dihydroartemisinin]
EC50 ([1]; Danio rerio): 107 nM
Efficacy on β-Pix MO Hemorrhage [2]: +++++ (One + sign represents 20% inhibition on 1 μmol/L ATV or β-Pix MO-induced hemorrhage.)
TC50 (Blood flow) (zebrafish larvae [3]; [9]): 979.5 nM
TC50 (Edema) (zebrafish larvae [3]; [9]): 1021 nM
TC50 (Blood flow) (zebrafish larvae [3]; [10]): 890 nM
TC50 (Edema) (zebrafish larvae [3]; [10]): 748.5 nM
Efficacy on atorvastatin Hemorrhage [4]: +++++ (One + sign represents 20% inhibition on 1 μmol/L ATV or β-Pix MO-induced hemorrhage.)
EC50 [4, 11]: 67 nmol/L
EC50 [4, 12]: 80.8 nmol/L
Result in the ATV zebrafish model [4]: tested positive

C#C[C@]1(O)CC[C@H]2[C@@H]3CCc4cc(O)ccc4[C@H]3CC[C@@]21C [Ethynylestradiol]
Efficacy on atorvastatin Hemorrhage [4]: +++ (One + sign represents 20% inhibition on 1 μmol/L ATV or β-Pix MO-induced hemorrhage.)

CCOC(=O)C1=C(C)NC(C)=C(C(=O)OCC)C1c1ccccc1/C=C/C(=O)OC(C)(C)C [Lacidipine]
Efficacy on atorvastatin Hemorrhage [4]: ++++ (One + sign represents 20% inhibition on 1 μmol/L ATV or β-Pix MO-induced hemorrhage.)

CC(C)[C@]12O[C@H]1[C@@H]1O[C@]13[C@]1(O[C@H]1C[C@@]1(C)C4=C(CC[C@]31C)C(=O)OC4)[C@H]2O [Tripolide]
Efficacy on β-Pix MO Hemorrhage [2]: No effect
Efficacy on atorvastatin Hemorrhage [4]: ++++ (One + sign represents 20% inhibition on 1 μmol/L ATV or β-Pix MO-induced hemorrhage.)

Artesunate
EC50 [1, 13]: 140 nM
Rescue of hemorrhage / ICH phenotype in bbh mutants ([1]; result in words): rescues the ICH phenotype
ICH in βPixexon6-MO injected embryos ([2]; 5 μmol/L, compounds added 12 hpf): prevented ICH
Efficacy on β-Pix MO Hemorrhage [2]: +++++ (One + sign represents 20% inhibition on 1 μmol/L ATV or β-Pix MO-induced hemorrhage.)
Rescue of hemorrhage induced by Cdh5 - exon2 morpholino [5]: rescue was observed
ICH/BMH after MO-mediated inhibition of hmgcrb ([6]; result in words): prevented
ICH/BMH after treatment with pak2a-MO [7]: dose-dependently reduced
Efficacy on atorvastatin Hemorrhage [4]: +++++ (One + sign represents 20% inhibition on 1 μmol/L ATV or β-Pix MO-induced hemorrhage.)
EC50 ([4]; read-out: EC50 (in nmol/L) on atorfvastatin model (μmol/L), Table 3, 1 μmol/L atorvastatin, 3 to 4 experiments): 211 nmol/L

Benidipine
Efficacy on β-Pix MO Hemorrhage [2]: ++++ (One + sign represents 20% inhibition on 1 μmol/L ATV or β-Pix MO-induced hemorrhage.)
Efficacy on atorvastatin Hemorrhage [4]: ++++ (One + sign represents 20% inhibition on 1 μmol/L ATV or β-Pix MO-induced hemorrhage.)

Cdh5 - exon2: morpholino 5′-TACAAGACCGTCTACCTTTCCAATC-3′ (antisense; all phosphorodiamidate morpholino (PMO))
Cardiac Edema (zebrafish larvae [8]; at optimum injected amount (1.0 ng)): 35.0% (Cardiac Edema)
Hemorrhage (zebrafish larvae [8]): 39.4%

GGTasel: morpholino 5′-CACGCGGTGTGTGGACTCACGGTCA-3′ (all phosphorodiamidate morpholino (PMO))
Hemorrhage (zebrafish larvae [8]): 11.4% (Faint)

Hmgcrb - splice: morpholino 5′-AACTGCATTCATAAACTCACCCAGT-3′ (all phosphorodiamidate morpholino (PMO))
Hemorrhage (zebrafish larvae [8]): 67.9%

Rap1b - exon3: morpholino 5′-AAATGATGCAGAACTTGCCTTTCTG-3′ (all phosphorodiamidate morpholino (PMO))
Hemorrhage (zebrafish larvae [8]): 30.8% (Faint)
